{"source": "patent US20100150911A1", "about": "“METHODS AND SYSTEMS OF TREATING AGE-RELATED MACULAR-DEGENERATION” (OPTO GLOBAL HOLDINGS PTY LTD, priority 2007, published 2010)", "tested_on": "subfoveal choroidal neovascularization (CNV) secondary to age-related macular degeneration (AMD)", "assay": "Indocyanine green mediated photothrombosis (i-MP) with and without intravitreal Bevacizumab in patients (Example 4)", "format": "in vivo, human", "data": [{"substance": "i-MP+intravitreal Bevacizumab: i-MP combined with an intravitreal injection of Bevacizumab (Avastin), an anti-VEGF compound", "values": [{"measurement": "need to perform a second treatment session", "setting": "10 months of follow-up, 25 eyes", "result": "not required"}, {"measurement": "eyes with improvement of the visual acuity in 2 lines (Group B: almost 2 lines) with staining in the fluorescein angiography", "setting": "10 months of follow-up, 25 eyes per group", "result": 68, "unit": "%"}, {"measurement": "response of the choroidal neovascular membranes (fluorescein angiography and OCT)", "setting": "10 months of follow-up, compared with i-MP alone", "result": "responded better"}, {"measurement": "visual acuity obtained by a single patient", "setting": "left eye, occult CNV, visual acuity 0.1 before treatment, 10 months after treatment", "result": 0.3}]}]}
